{"source": "patent US20250161299A1", "about": "“ORAL PCLX-001 IN THE TREATMENT OF HUMAN CANCER” (PACYLEX PHARMACEUTICALS INC., priority 2022, published 2025)", "experiment": "Phase I trial of oral PCLX-001: plasma pharmacokinetics, noncompartmental analysis (Phoenix WinNonlin 8.3)", "format": "in vivo, human", "conditions": "human, plasma, po; for half-life: read-out: Half-life (converted); for Tmax: read-out: Tmax; for AUC(0-t): read-out: AUClast or AUCtau", "text": "The clinical trial is entitled “Phase I Trial of PCLX-001 in B-cell Non-Hodgkin Lymphoma and Advanced Solid Malignancies” and registered at clinicaltrials.gov as NCT04836195. It is a phase I dose-escalation study of oral PCLX-001, conducted in a multicenter, non-randomized, open-label, non-controlled design. The study is comprised of two parts: Part A (single-agent dose escalation) and Part B (single-agent expansion cohorts).\nPatients are to receive daily oral PCLX-001 on 28-day cycles, beginning with a starting dose of 20 mg.\n[…] After dosing, the blood samples (volumes 3 mL) were serially collected into heparinized tubes from a right forearm butterfly cannula. All blood fluid specimens were frozen and later assayed using a validated UHPLC-MS detection method.\nNoncompartmental pharmacokinetic analysis was performed using Phoenix WinNonlin 8.3 using trapezoidal rule and linear up log down methodology. WinNonlin was allowed to pick optimal terminal phases.\nNonparametric superposition was performed using Phoenix WinNonlin Nonparametric Superposition to predict steady state data based upon Day 1 data for each patient. It utilized the 8- and 24-hour time points for estimation of terminal phase for the purposes of this exercise. We simulated 20 mg daily oral dosing and simulations were conducted out to steady state. Results are show in FIGS. 5, 6, and 7.\nIn the non-compartmental analysis, Phoenix WinNonlin 8.3 trapezoidal rule was used, with linear up log down method. This allowed WinNonlin to pick optimal terminal phase (WinNonlin will accept Rsq adjusted to >0.7). Additional analysis to assess adequate fie included visual inspection of data, and AUCextrap should be <15%.\nPhoenix WinNonlin 8.3 trapezoidal rule. Used linear up log down method. Allowed WinNonlin to pick optimal terminal phase (WinNonlin will accept Rsq adjusted >0.7).\nOther analysis to assess adequate fit. Visual inspection of data. AUCextrap should be <15%.", "key": {"[1]": {"conditions": "20 mg, Table 1A, Patient 115-002-004 (Patient 3), Day 15, 20 mg oral daily"}, "[2]": {"conditions": "20 mg, Table 6, Patient 115-002-001, Day 1, 20 mg QD oral, Pantoprazole No"}, "[3]": {"conditions": "20 mg, Table 6, Patient 115-002-001, Day 15, 20 mg QD oral, Pantoprazole No"}, "[4]": {"conditions": "20 mg, Table 6, Patient 115-002-002, Day 1, 20 mg QD oral, Pantoprazole No"}, "[5]": {"conditions": "20 mg, Table 6, Patient 115-002-002, Day 15, 20 mg QD oral, Pantoprazole No"}, "[6]": {"conditions": "20 mg, Table 6, Patient 115-002-004, Day 1, 20 mg QD oral, Pantoprazole No"}, "[7]": {"conditions": "20 mg, Table 6, Patient 115-002-004, Day 15, 20 mg QD oral, Pantoprazole No"}, "[8]": {"conditions": "40 mg, Table 7, Patient 115-002-005, Day 1, 40 mg QD oral, Pantoprazole Yes"}, "[9]": {"conditions": "40 mg, Table 7, Patient 115-002-005, Day 15, 40 mg QD oral, Pantoprazole Yes"}, "[10]": {"conditions": "40 mg, Table 7, Patient 115-002-006, Day 1, 40 mg QD oral, Pantoprazole Yes"}, "[11]": {"conditions": "40 mg, Table 7, Patient 115-002-006, Day 15, 40 mg QD oral, Pantoprazole Yes"}, "[12]": {"conditions": "40 mg, Table 7, Patient 115-009-001, Day 1, 40 mg QD oral, Pantoprazole No"}, "[13]": {"conditions": "40 mg, Table 7, Patient 115-009-001, Day 15, 40 mg QD oral, Pantoprazole No"}, "[14]": {"conditions": "70 mg, Table 8, Patient 115-002-007, Day 1, 70 mg QD oral, Pantoprazole Yes"}, "[15]": {"conditions": "70 mg, Table 8, Patient 115-002-007, Day 15, 70 mg QD oral, Pantoprazole Yes"}, "[16]": {"conditions": "70 mg, Table 8, Patient 115-002-008, Day 1, 70 mg QD oral, Pantoprazole Yes"}, "[17]": {"conditions": "70 mg, Table 8, Patient 115-002-008, Day 15, 70 mg QD oral, Pantoprazole Yes"}}, "note": "Where two headings read alike, the source gives them in different places."}
{"smiles": "Cc1c(NS(=O)(=O)c2c(Cl)cc(-c3ccnc(N4CCNCC4)c3)cc2Cl)c(CC(C)C)nn1C", "note": "[PCLX-001, 2,6-dichloro-N-(3-isobutyl-1,5-dimethyl-1H-pyrazol-4-yl)-4-(2-(piperazin-1-yl)pyridin-4-yl)benzene sulfonamide]", "values": [{"measurement": "half-life", "setting": "[1]", "result": 6.86, "unit": "h"}, {"measurement": "Tmax", "setting": "[1]", "result": 0.5, "unit": "h"}, {"measurement": "AUC(0-inf)", "setting": "[2]", "result": 2030, "unit": "ng·h/mL"}, {"measurement": "Cmax", "setting": "[2]", "result": 360, "unit": "ng/mL"}, {"measurement": "AUC(0-t)", "setting": "[2]", "result": 1720, "unit": "ng·h/mL"}, {"measurement": "half-life", "setting": "[2]", "result": 8.34, "unit": "h"}, {"measurement": "Tmax", "setting": "[2]", "result": 1, "unit": "h"}, {"measurement": "AUC(0-inf)", "setting": "[3]", "result": 3600, "unit": "ng·h/mL"}, {"measurement": "Cmax", "setting": "[3]", "result": 479, "unit": "ng/mL"}, {"measurement": "AUC(0-t)", "setting": "[3]", "result": 2750, "unit": "ng·h/mL"}, {"measurement": "half-life", "setting": "[3]", "result": 10.9, "unit": "h"}, {"measurement": "Tmax", "setting": "[3]", "result": 1, "unit": "h"}, {"measurement": "Cmax", "setting": "[4]", "result": 142, "unit": "ng/mL"}, {"measurement": "AUC(0-t)", "setting": "[4]", "result": 1300, "unit": "ng·h/mL"}, {"measurement": "Tmax", "setting": "[4]", "result": 4, "unit": "h"}, {"measurement": "AUC(0-inf)", "setting": "[5]", "result": 2440, "unit": "ng·h/mL"}, {"measurement": "Cmax", "setting": "[5]", "result": 243, "unit": "ng/mL"}, {"measurement": "AUC(0-t)", "setting": "[5]", "result": 2010, "unit": "ng·h/mL"}, {"measurement": "half-life", "setting": "[5]", "result": 9.42, "unit": "h"}, {"measurement": "Tmax", "setting": "[5]", "result": 2, "unit": "h"}, {"measurement": "AUC(0-inf)", "setting": "[6]", "result": 1880, "unit": "ng·h/mL"}, {"measurement": "Cmax", "setting": "[6]", "result": 326, "unit": "ng/mL"}, {"measurement": "AUC(0-t)", "setting": "[6]", "result": 1780, "unit": "ng·h/mL"}, {"measurement": "half-life", "setting": "[6]", "result": 5.51, "unit": "h"}, {"measurement": "Tmax", "setting": "[6]", "result": 2, "unit": "h"}, {"measurement": "AUC(0-inf)", "setting": "[7]", "result": 2110, "unit": "ng·h/mL"}, {"measurement": "Cmax", "setting": "[7]", "result": 356, "unit": "ng/mL"}, {"measurement": "AUC(0-t)", "setting": "[7]", "result": 1900, "unit": "ng·h/mL"}, {"measurement": "half-life", "setting": "[7]", "result": 6.47, "unit": "h"}, {"measurement": "Tmax", "setting": "[7]", "result": 0.5, "unit": "h"}, {"measurement": "AUC(0-inf)", "setting": "[8]", "result": 4900, "unit": "ng·h/mL"}, {"measurement": "Cmax", "setting": "[8]", "result": 868, "unit": "ng/mL"}, {"measurement": "AUC(0-t)", "setting": "[8]", "result": 4430, "unit": "ng·h/mL"}, {"measurement": "half-life", "setting": "[8]", "result": 7.5, "unit": "h"}, {"measurement": "Tmax", "setting": "[8]", "result": 0.5, "unit": "h"}, {"measurement": "AUC(0-inf)", "setting": "[9]", "result": 7060, "unit": "ng·h/mL"}, {"measurement": "Cmax", "setting": "[9]", "result": 802, "unit": "ng/mL"}, {"measurement": "AUC(0-t)", "setting": "[9]", "result": 6680, "unit": "ng·h/mL"}, {"measurement": "half-life", "setting": "[9]", "result": 5.54, "unit": "h"}, {"measurement": "Tmax", "setting": "[9]", "result": 2, "unit": "h"}, {"measurement": "Cmax", "setting": "[10]", "result": 7.13, "unit": "ng/mL"}, {"measurement": "AUC(0-t)", "setting": "[10]", "result": 79.6, "unit": "ng·h/mL"}, {"measurement": "Tmax", "setting": "[10]", "result": 4, "unit": "h"}, {"measurement": "Cmax", "setting": "[11]", "result": 40.8, "unit": "ng/mL"}, {"measurement": "AUC(0-t)", "setting": "[11]", "result": 175, "unit": "ng·h/mL"}, {"measurement": "Tmax", "setting": "[11]", "result": 4, "unit": "h"}, {"measurement": "AUC(0-inf)", "setting": "[12]", "result": 12600, "unit": "ng·h/mL"}, {"measurement": "Cmax", "setting": "[12]", "result": 1670, "unit": "ng/mL"}, {"measurement": "AUC(0-t)", "setting": "[12]", "result": 10100, "unit": "ng·h/mL"}, {"measurement": "half-life", "setting": "[12]", "result": 10.8, "unit": "h"}, {"measurement": "Tmax", "setting": "[12]", "result": 1, "unit": "h"}, {"measurement": "AUC(0-inf)", "setting": "[13]", "result": 18300, "unit": "ng·h/mL"}, {"measurement": "Cmax", "setting": "[13]", "result": 1480, "unit": "ng/mL"}, {"measurement": "AUC(0-t)", "setting": "[13]", "result": 13700, "unit": "ng·h/mL"}, {"measurement": "half-life", "setting": "[13]", "result": 11.9, "unit": "h"}, {"measurement": "Tmax", "setting": "[13]", "result": 2, "unit": "h"}, {"measurement": "Cmax", "setting": "[14]", "result": 158, "unit": "ng/mL"}, {"measurement": "AUC(0-t)", "setting": "[14]", "result": 1960, "unit": "ng·h/mL"}, {"measurement": "Tmax", "setting": "[14]", "result": 4, "unit": "h"}, {"measurement": "Cmax", "setting": "[15]", "result": 602, "unit": "ng/mL"}, {"measurement": "AUC(0-t)", "setting": "[15]", "result": 8130, "unit": "ng·h/mL"}, {"measurement": "Tmax", "setting": "[15]", "result": 4, "unit": "h"}, {"measurement": "Cmax", "setting": "[16]", "result": 408, "unit": "ng/mL"}, {"measurement": "AUC(0-t)", "setting": "[16]", "result": 4550, "unit": "ng·h/mL"}, {"measurement": "Tmax", "setting": "[16]", "result": 8, "unit": "h"}, {"measurement": "Cmax", "setting": "[17]", "result": 170, "unit": "ng/mL"}, {"measurement": "AUC(0-t)", "setting": "[17]", "result": 3380, "unit": "ng·h/mL"}]}
